Reference: patent US12344623B2, “Thiazolopyridine derivatives as adenosine receptor antagonists” (Merck Patent GmbH, priority 2019, dated 2025)
pIC50: −log10 of the molar value. Like-named read-outs stand apart in the source and are kept apart here.

Tests used:
Format in all cases: cell-based
human A3 receptor = target: T1, human A3 receptor (Homo sapiens, UniProt P0DMS8); assay: Functional A3 receptor activity, recombinant CHO cells, cAMP (HTRF), forskolin, agonist IB-MECA; details: recombinant CHO cells, forskolin, agonist IB-MECA, read-out: Functional A3 receptor activity, CHO, cAMP, IC50
T1 construct: expressed in transfected cells; host or cells: CHO
T1 sequence (P0DMS8 1-318): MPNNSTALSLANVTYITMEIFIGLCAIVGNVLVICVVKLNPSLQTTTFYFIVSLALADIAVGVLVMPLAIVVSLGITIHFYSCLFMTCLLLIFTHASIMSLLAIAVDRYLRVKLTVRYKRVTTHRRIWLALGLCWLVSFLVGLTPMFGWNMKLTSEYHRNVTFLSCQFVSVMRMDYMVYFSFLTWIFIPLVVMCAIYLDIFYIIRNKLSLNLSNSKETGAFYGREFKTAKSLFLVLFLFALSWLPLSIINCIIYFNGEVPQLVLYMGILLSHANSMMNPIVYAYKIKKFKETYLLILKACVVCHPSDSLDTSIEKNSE
Summary of the method: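 Normalized HTRF cAMP signals (inhibitor and DMSO controls as references) were curve-fitted; assays used forskolin-stimulated CHO cells with A1 or A3, agonist CPA or IB-MECA respectively, 30 min compound incubation.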

human A2A receptor = human A2A receptor (Homo sapiens, UniProt P29274); assay: Functional A2A receptor activity, recombinant HEK293 cells, cAMP (HTRF), agonist NECA; set-up: expressed in transfected cells; host or cells: HEK293; details: read-out: Functional A2A receptor activity, HEK293, cAMP, IC50
Chain of human A2A receptor (P29274 whole entry): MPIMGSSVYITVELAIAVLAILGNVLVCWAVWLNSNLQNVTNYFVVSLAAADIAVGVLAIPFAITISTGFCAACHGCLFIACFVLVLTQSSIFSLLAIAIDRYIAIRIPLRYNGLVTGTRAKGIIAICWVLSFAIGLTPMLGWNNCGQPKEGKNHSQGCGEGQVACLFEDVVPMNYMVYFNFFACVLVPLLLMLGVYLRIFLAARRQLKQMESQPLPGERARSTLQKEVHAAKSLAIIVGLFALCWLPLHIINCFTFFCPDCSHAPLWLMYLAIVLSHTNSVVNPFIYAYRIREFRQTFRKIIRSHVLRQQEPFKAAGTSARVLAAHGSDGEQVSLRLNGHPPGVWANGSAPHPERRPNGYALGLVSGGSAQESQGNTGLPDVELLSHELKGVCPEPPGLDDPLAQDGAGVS
Summary of the method: (§1)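 Intracellular cAMP, the adenosine receptor second messenger, is measured by HTRF following 30 min co-incubation with forskolin, agonist and test compound. Normalization uses DMSO as the neutral control and an inhibitor as the reference control. Fitted curves yield the values.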

human A1 receptor = target: T2, human A1 receptor (Homo sapiens, UniProt P30542); assay: Functional A1 receptor activity, recombinant CHO cells, cAMP (HTRF), forskolin, agonist CPA; details: recombinant CHO cells, forskolin, agonist CPA, read-out: Functional A1 receptor activity, CHO, cAMP, IC50
T2 construct: expressed in transfected cells; host or cells: CHO
T2 sequence (P30542 1-326): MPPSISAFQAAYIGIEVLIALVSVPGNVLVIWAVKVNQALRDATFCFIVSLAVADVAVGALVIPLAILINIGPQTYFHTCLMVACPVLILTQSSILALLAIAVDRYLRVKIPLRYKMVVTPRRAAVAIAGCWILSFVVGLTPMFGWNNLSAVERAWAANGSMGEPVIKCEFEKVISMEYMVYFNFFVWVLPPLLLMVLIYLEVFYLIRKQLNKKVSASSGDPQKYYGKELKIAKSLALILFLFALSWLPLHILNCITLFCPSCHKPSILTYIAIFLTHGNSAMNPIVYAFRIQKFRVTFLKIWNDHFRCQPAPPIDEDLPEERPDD
Method: The functional activities of human A2A, A2B, A1 and A3 receptors were determined by quantification of cAMP, being the second messenger for adenosine receptors.
For human A1 and A3 receptors, recombinant CHO cells, expressing either A1 or A3-receptor, were used. As both receptors couple to Gi proteins, the assay protocol was adapted:
Cells were seeded into 384-well plates, forskolin, test compounds and agonists (CPA for A1- and IB-MECA for A3-receptor) were added. After 30 min incubation, HTRF reagents (cAMP dynamic 2, Cis Bio) were added and the cellular cAMP levels were determined using the ENVISION (Perkin Elmer) plate reader. Obtained raw data were normalized against the inhibitor control and the neural control (DMSO) and the normalized data were fitted using GeneData software.

human A2B receptor = target: T3, human A2B receptor (Homo sapiens, UniProt P29275); assay: Functional A2B receptor activity, recombinant HEK293 cells, cAMP (HTRF), agonist NECA; details: read-out: Functional A2B receptor activity, HEK293, cAMP, IC50
T3 construct: expressed in transfected cells; host or cells: HEK293
T3 sequence (P29275 1-332): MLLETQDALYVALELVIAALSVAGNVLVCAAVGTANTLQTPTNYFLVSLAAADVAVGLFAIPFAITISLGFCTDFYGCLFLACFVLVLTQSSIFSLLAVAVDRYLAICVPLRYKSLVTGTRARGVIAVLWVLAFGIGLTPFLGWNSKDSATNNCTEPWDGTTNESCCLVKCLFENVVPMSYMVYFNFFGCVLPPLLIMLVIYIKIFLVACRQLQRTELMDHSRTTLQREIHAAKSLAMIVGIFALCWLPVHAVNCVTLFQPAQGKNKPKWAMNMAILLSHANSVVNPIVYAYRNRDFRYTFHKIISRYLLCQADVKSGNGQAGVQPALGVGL
Summary of the method: as §1

Compound: COCCn1cc(C(=O)Nc2nc3c(OC)nc(F)c(C4CCOCC4)c3s2)cn1 [Compound 22, N-[6-fluoro-4-methoxy-7-(oxan-4-yl)-[1,3]thiazolo[4,5-c]pyridin-2-yl]-1-(2-methoxyethyl)-1H-pyrazole-4-carboxamide]
- pIC50 (human A3 receptor): > 6.00
- pIC50 (human A2A receptor): > 8.00
- pIC50 (human A1 receptor): > 6.00
- pIC50 (human A2B receptor): > 8.00

Compound: COc1ccc(N2CCOCC2)c2sc(NC(=O)N3CCCCC3)nc12 [drawing 191, reference compound]
- pIC50 (human A3 receptor; cAMP): > 6.00
- pIC50 (human A2A receptor): > 8.00
- pIC50 (human A1 receptor; cAMP): < 6.00
- pIC50 (human A2B receptor): > 6.00

Compound: COc1nc(F)c(C2CCOCC2)c2sc(NC(=O)N3CC[C@]4(CCCOC4)C3)nc12 [Compound 34, (R)-7-Oxa-2-aza-spiro[4.5]decane-2-carboxylic acid [6-fluoro-4-methoxy-7-(tetrahydro-pyran-4-yl)-thiazolo[4,5-c]pyridin-2-yl]-amide]
- pIC50 (human A3 receptor): < 6.00
- pIC50 (human A2A receptor): > 8.00
- pIC50 (human A1 receptor): < 6.00
- pIC50 (human A2B receptor): > 7.00

Compound: COc1ncc(C2=CCOCC2)c2sc(NC(=O)N3CCC4(CCOC4)C3)nc12 (stereo not shown) [Compound 108, N-[7-(3,6-dihydro-2H-pyran-4-yl)-4-methoxy-[1,3]thiazolo[4,5-c]pyridin-2-yl]-2-oxa-7-azaspiro[4.4]nonane-7-carboxamide]
- pIC50 (human A3 receptor): < 6.00
- pIC50 (human A2A receptor): > 8.00
- pIC50 (human A1 receptor): > 6.00
- pIC50 (human A2B receptor): > 8.00

Compound: COc1nc(F)c(-c2ccccc2)c2sc(NC(=O)C34CC(C(=O)N(C)CCO)(C3)C4)nc12 [Compound 101, Bicyclo[1.1.1]pentane-1,3-dicarboxylic acid (6-fluoro-4-methoxy-7-phenyl-thiazolo[4,5-c]pyridin-2-yl)-amide (2-hydroxy-ethyl)-methyl-amide]
- pIC50 (human A3 receptor): < 6.00
- pIC50 (human A2A receptor): > 8.00
- pIC50 (human A1 receptor): < 6.00
- pIC50 (human A2B receptor): > 7.00

Compound: COc1ncc(-c2cnn(Cc3ccncc3)c2)c2sc(NC(=O)N3CCC4(CCOCC4)C3)nc12 [Compound 75, 8-Oxa-2-aza-spiro[4.5]decane-2-carboxylic acid [4-methoxy-7-(1-pyridin-4-ylmethyl-1H-pyrazol-4-yl)-thiazolo[4,5-c]pyridin-2-yl]-amide]
- pIC50 (human A3 receptor): < 6.00
- pIC50 (human A2A receptor): > 8.00
- pIC50 (human A1 receptor): < 6.00
- pIC50 (human A2B receptor): > 7.00

Compound: COc1ncc(-c2cnn(CC3CCCCO3)c2)c2sc(NC(=O)N3CCC4(CCOCC4)C3)nc12 (stereo not shown) [Compound 84, 8-Oxa-2-aza-spiro[4.5]decane-2-carboxylic acid {4-methoxy-7-[1-(tetrahydro-pyran-2-ylmethyl)-1H-pyrazol-4-yl]-thiazolo[4,5-c]pyridin-2-yl}-amide]
- pIC50 (human A3 receptor): < 6.00
- pIC50 (human A2A receptor): > 8.00
- pIC50 (human A1 receptor): > 7.00
- pIC50 (human A2B receptor): > 7.00

Compound: COc1nc(F)c(C2CCOCC2)c2sc(NC(=O)c3cnn(C)c3)nc12 [Compound 23, N-[6-fluoro-4-methoxy-7-(oxan-4-yl)-[1,3]thiazolo[4,5-c]pyridin-2-yl]-1-methyl-1H-pyrazole-4-carboxamide]
- pIC50 (human A3 receptor): < 6.00
- pIC50 (human A2A receptor): > 8.00
- pIC50 (human A1 receptor): > 6.00
- pIC50 (human A2B receptor): > 8.00

Compound: COc1ncc(C2=CCOCC2)c2sc(NC(=O)c3cnn(-c4ccccc4)c3)nc12 [Compound 156, 1-Phenyl-1H-pyrazole-4-carboxylic acid [7-(3,6-dihydro-2H-pyran-4-yl)-4-methoxy-thiazolo[4,5-c]pyridin-2-yl]-amide]
- pIC50 (human A3 receptor): < 6.00
- pIC50 (human A2A receptor): > 8.00
- pIC50 (human A1 receptor): > 6.00
- pIC50 (human A2B receptor): > 8.00

Compound: COc1ncc(-c2cc(O)ccc2F)c2sc(NC(=O)N3CCC4(CCOCC4)C3)nc12 [Compound 150, 8-Oxa-2-aza-spiro[4.5]decane-2-carboxylic acid [7-(2-fluoro-5-hydroxy-phenyl)-4-methoxy-thiazolo[4,5-c]pyridin-2-yl]-amide]
- pIC50 (human A3 receptor): < 6.00
- pIC50 (human A2A receptor): > 8.00
- pIC50 (human A1 receptor): < 6.00
- pIC50 (human A2B receptor): > 7.00
